# Assay results published in patent US11046716B2, “Beta-lactamase inhibitors” (priority 2015, dated 2021).
# How the values were obtained:
# [1] = tested on: E. cloacae expressing the Class C P99; assay: Broth microdilution MIC assay with ceftazidime, E. cloacae P99; format: cell-based; conditions: Fixed CAZ (ceftazidime) 4 μg/mL; E. cl. 144200 p99 AmpC
# Outline: (§1)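 CAMHB; cpd 2-fold serial dilution, 16–0.125 μg/mL final; β-lactam static 4 μg/ml; CLSI inoculation; 16–20 h, 37° C; MIC read by eye.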
# VIM-2 = target: T1, VIM-2 (Escherichia coli, UniProt Q5U7L7); assay: β-lactamase enzyme inhibition assay, VIM-2 (nitrocefin substrate); format: biochemical; conditions: Class B; nitrocefin substrate, 486 nm; read-out: VIM-2
# T1 construct: made in house; host or cells: E. coli BL21(DE3)
# Outline: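 Enzyme + inhibitor, 37 °C, 15 min; nitrocefin 100 μM final; A486 read for 10 min. % inhibition vs no-inhibitor wells per concentration; IC50 = concentration halving initial hydrolysis rate.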
# [2] = tested on: K. pneumoniae producing the Class D carbapenemase OXA-48; assay: Broth microdilution MIC assay with meropenem, K. pneumoniae OXA-48; format: cell-based; conditions: Fixed Mero (meropenem) 4 μg/mL; K. p. 11978 OXA-48
# Outline: as §1
# [3] = tested on: K. pneumoniae expressing the Class A carbapenemase KPC-2; assay: Broth microdilution MIC assay with meropenem, K. pneumoniae KPC-2; format: cell-based; conditions: Fixed Mero (meropenem) 4 μg/mL; K. p. 156319 KPC-3
# Outline: as §1
# [4] = tested on: K. pneumoniae expressing the class A carbapenemase KPC-2 and the class B carbapenemase VIM-4; assay: Broth microdilution MIC assay with meropenem, K. pneumoniae KPC-2 and VIM-4; format: cell-based; conditions: Fixed Mero (meropenem) 4 μg/mL; K. p. A-1797 KPC-2 VIM-4
# Outline: as §1
# AmpC = target: T2, AmpC (Enterobacter cloacae, UniProt P05364); assay: β-lactamase enzyme inhibition assay, p99 AmpC (nitrocefin substrate); format: biochemical
# T2 construct: made in house; host or cells: E. coli BL21(DE3)
# T2 sequence (P05364 21-381): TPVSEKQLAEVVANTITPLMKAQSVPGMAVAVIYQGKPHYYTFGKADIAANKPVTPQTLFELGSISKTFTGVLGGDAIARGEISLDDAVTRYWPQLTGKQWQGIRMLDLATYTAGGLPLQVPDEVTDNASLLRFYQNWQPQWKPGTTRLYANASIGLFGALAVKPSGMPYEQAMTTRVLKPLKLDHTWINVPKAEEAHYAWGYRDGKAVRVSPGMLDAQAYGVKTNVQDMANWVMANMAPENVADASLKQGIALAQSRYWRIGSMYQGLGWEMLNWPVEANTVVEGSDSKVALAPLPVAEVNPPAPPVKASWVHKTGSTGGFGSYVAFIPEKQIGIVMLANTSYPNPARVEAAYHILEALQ
# Outline: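 IC50 is the inhibitor level cutting initial substrate hydrolysis rate by 50% relative to no-inhibitor controls, after 15 min enzyme–inhibitor preincubation at 37 °C. enzymes were untagged, E. coli-expressed, chromatographically purified.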
# KPC-2 = target: T3, KPC-2 (Klebsiella pneumoniae, UniProt Q9F663); assay: β-lactamase enzyme inhibition assay, KPC-2 (imipenem substrate); format: biochemical; conditions: Class A; imipenem substrate, 300 nm; read-out: KPC-2
# T3 construct: made in house; host or cells: E. coli BL21(DE3)
# T3 sequence (Q9F663 25-293, looked up): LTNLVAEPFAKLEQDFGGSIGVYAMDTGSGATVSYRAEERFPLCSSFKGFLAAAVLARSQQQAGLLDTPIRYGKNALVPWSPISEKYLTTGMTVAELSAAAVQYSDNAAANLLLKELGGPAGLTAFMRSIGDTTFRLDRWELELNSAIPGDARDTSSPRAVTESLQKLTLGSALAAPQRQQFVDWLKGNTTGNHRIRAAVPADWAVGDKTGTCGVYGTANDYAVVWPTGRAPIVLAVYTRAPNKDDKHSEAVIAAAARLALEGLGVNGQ
# Outline: (§2)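 IC50 is the inhibitor level cutting initial substrate hydrolysis rate by 50% relative to no-inhibitor controls, after 15 min enzyme–inhibitor preincubation at 37 °C. KPC-2 read with imipenem at 300 nm, SHV-5 with cefotaxime at 260 nm; enzymes were untagged, E. coli-expressed, chromatographically purified.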
# SHV-5 = target: T4, SHV-5 (Klebsiella pneumoniae, UniProt P0A3M1); assay: β-lactamase enzyme inhibition assay, SHV-5 (cefotaxime substrate); format: biochemical
# T4 construct: made in house; host or cells: E. coli BL21(DE3)
# T4 sequence (P0A3M1 22-286): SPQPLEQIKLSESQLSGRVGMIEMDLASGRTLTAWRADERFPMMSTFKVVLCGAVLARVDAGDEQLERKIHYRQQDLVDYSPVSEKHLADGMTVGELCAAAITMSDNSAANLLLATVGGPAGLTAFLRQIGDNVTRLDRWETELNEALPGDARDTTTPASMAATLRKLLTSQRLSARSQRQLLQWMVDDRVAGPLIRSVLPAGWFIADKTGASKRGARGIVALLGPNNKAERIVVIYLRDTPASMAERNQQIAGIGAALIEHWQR
# Outline: as §2
# [5] = tested on: E. coli expressing the Class A Extended Spectrum Beta-Lactamase (ESBL) CTX-M-15; assay: Broth microdilution MIC assay with ceftazidime, E. coli CTX-M-15; format: cell-based; conditions: Fixed CAZ (ceftazidime) 4 μg/mL; E. coli ESBL4 CTX-M-15
# Outline: as §1
# [6] = tested on: P. aeruginosa expressing the Class B carbapenemase VIM-2; assay: Broth microdilution MIC assay with meropenem, P. aeruginosa VIM-2; format: cell-based; conditions: Fixed Mero (meropenem) 4 μg/mL; P. aerug. 2775 VIM-2
# Outline: as §1
# OXA-48 = OXA-48 (UniProt Q6XEC0); assay: β-lactamase enzyme inhibition assay, Class D oxacillinase; format: biochemical; conditions: read-out: OXA-48
Structure (SMILES),MIC (μg/mL) of Exemplary Compounds in presence of fixed β-lactams: E. cl. 144200 p99 AmpC [1],IC50 (VIM-2),MIC (μg/mL) of Exemplary Compounds in presence of fixed β-lactams: K. p. 11978 OXA-48 [2],MIC (μg/mL) of Exemplary Compounds in presence of fixed β-lactams: K. p. 156319 KPC-3 [3],MIC (μg/mL) of Exemplary Compounds in presence of fixed β-lactams: K. p. A-1797 KPC-2 VIM-4 [4],IC50 (AmpC),IC50 (KPC-2),IC50 (SHV-5),MIC (μg/mL) of Exemplary Compounds in presence of fixed β-lactams: E. coli ESBL4 CTX-M-15 [5],MIC (μg/mL) of Exemplary Compounds in presence of fixed β-lactams: P. aerug. 2775 VIM-2 [6],IC50 (OXA-48)
"N#Cc1ncn(CC(=O)N[C@H]2Cc3cccc(C(=O)O)c3OB2O)n1 [Example 25, (R)-3-(2-(3-cyano-1H-1,2,4-triazol-1-yl)acetamido)-2-hydroxy-3,4-dihydro-2H-benzo[e][1,2]oxaborinine-8-carboxylic acid]",C (C represents an MIC of <1 μg/mL),100 to 1000 nM,B (B represents an MIC between 1 and 16 μg/mL inclusive),B (B represents an MIC between 1 and 16 μg/mL inclusive),A (A represents an MIC>16 μg/mL),< 100 nM,< 100 nM,< 100 nM,C (C represents an MIC of <1 μg/mL),B (B represents an MIC between 1 and 16 μg/mL inclusive),100 to 1000 nM
NCc1ncn(CC(=O)N[C@H]2Cc3cccc(C(=O)O)c3OB2O)n1 [Example 125],C (C represents an MIC of <1 μg/mL),< 100 nM,B (B represents an MIC between 1 and 16 μg/mL inclusive),C (C represents an MIC of <1 μg/mL),C (C represents an MIC of <1 μg/mL),< 100 nM,< 100 nM,100 to 1000 nM,C (C represents an MIC of <1 μg/mL),C (C represents an MIC of <1 μg/mL),1000 to 10000 nM
"N=C(N)NCCn1nnc(CC(=O)N[C@H]2Cc3cccc(C(=O)O)c3OB2O)n1 [Example 48, (R)-3-(2-(2-(2-guanidinoethyl)-2H-tetrazol-5-yl)acetamido)-2-hydroxy-3,4-dihydro-2H-benzo[e][1,2]oxaborinine-8-carboxylic acid]",C (C represents an MIC of <1 μg/mL),< 100 nM,B (B represents an MIC between 1 and 16 μg/mL inclusive),B (B represents an MIC between 1 and 16 μg/mL inclusive),B (B represents an MIC between 1 and 16 μg/mL inclusive),< 100 nM,< 100 nM,< 100 nM,C (C represents an MIC of <1 μg/mL),C (C represents an MIC of <1 μg/mL),1000 to 10000 nM
"O=C(Cn1cc(C2CCNC2)nn1)N[C@H]1Cc2cccc(C(=O)O)c2OB1O (stereo partly drawn) [Example 89, (3R)-2-hydroxy-3-(2-(4-(pyrrolidin-3-yl)-1H-1,2,3-triazol-1-yl)acetamido)-3,4-dihydro-2H-benzo[e][1,2]oxaborinine-8-carboxylic acid]",C (C represents an MIC of <1 μg/mL),100 to 1000 nM,B (B represents an MIC between 1 and 16 μg/mL inclusive),C (C represents an MIC of <1 μg/mL),B (B represents an MIC between 1 and 16 μg/mL inclusive),< 100 nM,100 to 1000 nM,100 to 1000 nM,C (C represents an MIC of <1 μg/mL),C (C represents an MIC of <1 μg/mL),1000 to 10000 nM
"N=CNCc1cn(CC(=O)N[C@H]2Cc3cccc(C(=O)O)c3OB2O)nn1 [Example 22, (R)-3-(2-(4-(formimidamidomethyl)-1H-1,2,3-triazol-1-yl)acetamido)-2-hydroxy-3,4-dihydro-2H-benzo[e][1,2]oxaborinine-8-carboxylic acid]",C (C represents an MIC of <1 μg/mL),100 to 1000 nM,B (B represents an MIC between 1 and 16 μg/mL inclusive),C (C represents an MIC of <1 μg/mL),B (B represents an MIC between 1 and 16 μg/mL inclusive),< 100 nM,100 to 1000 nM,100 to 1000 nM,C (C represents an MIC of <1 μg/mL),C (C represents an MIC of <1 μg/mL),1000 to 10000 nM
"O=C(Cc1nnn(CC2CCNCC2)n1)N[C@H]1Cc2cccc(C(=O)O)c2OB1O [Example 99, (R)-2-hydroxy-3-(2-(2-(piperidin-4-ylmethyl)-2H-tetrazol-5-yl)acetamido)-3,4-dihydro-2H-benzo[e][1,2]oxaborinine-8-carboxylic acid]",C (C represents an MIC of <1 μg/mL),100 to 1000 nM,B (B represents an MIC between 1 and 16 μg/mL inclusive),C (C represents an MIC of <1 μg/mL),B (B represents an MIC between 1 and 16 μg/mL inclusive),< 100 nM,< 100 nM,< 100 nM,C (C represents an MIC of <1 μg/mL),C (C represents an MIC of <1 μg/mL),100 to 1000 nM
"O=C(Cn1nnc(CN2CCOCC2)c1CN1CCOCC1)N[C@H]1Cc2cccc(C(=O)O)c2OB1O [Example 32, (R)-3-(2-(4,5-bis(morpholinomethyl)-1H-1,2,3-triazol-1-yl)acetamido)-2-hydroxy-3,4-dihydro-2H-benzo[e][1,2]oxaborinine-8-carboxylic acid]",A (A represents an MIC>16 μg/mL),100 to 1000 nM,A (A represents an MIC>16 μg/mL),B (B represents an MIC between 1 and 16 μg/mL inclusive),A (A represents an MIC>16 μg/mL),< 100 nM,< 100 nM,< 100 nM,B (B represents an MIC between 1 and 16 μg/mL inclusive),B (B represents an MIC between 1 and 16 μg/mL inclusive),100 to 1000 nM
